Assay results: patent US11098032B2, “Pyran dervatives as CYP11A1 (cytochrome P450 monooxygenase 11A1) inhibitors” (ORION CORPORATION, priority 2016, dated 2021)
Where a name gives a salt, the structure may show the parent alone.

Target: T1, CYP11A1 (Homo sapiens, UniProt P05108)
T1 construct: human H295R adrenocortical carcinoma cell line was used as source of enzyme; endogenous in cells; host or cells: H295R human adrenocortical carcinoma cells
T1 sequence (P05108 40-521): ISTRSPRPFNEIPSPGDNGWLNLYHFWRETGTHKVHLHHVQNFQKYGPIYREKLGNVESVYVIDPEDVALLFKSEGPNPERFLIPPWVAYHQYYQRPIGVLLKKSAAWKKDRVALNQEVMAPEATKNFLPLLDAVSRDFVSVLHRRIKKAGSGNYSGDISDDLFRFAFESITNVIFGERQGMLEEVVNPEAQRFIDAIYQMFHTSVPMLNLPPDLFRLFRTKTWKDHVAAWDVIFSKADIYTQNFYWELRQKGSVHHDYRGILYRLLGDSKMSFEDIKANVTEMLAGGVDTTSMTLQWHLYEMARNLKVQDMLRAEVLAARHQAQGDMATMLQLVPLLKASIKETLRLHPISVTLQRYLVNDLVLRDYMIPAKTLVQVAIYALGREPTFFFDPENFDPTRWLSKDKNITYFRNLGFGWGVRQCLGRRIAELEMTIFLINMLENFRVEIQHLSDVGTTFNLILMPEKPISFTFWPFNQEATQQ
Test: CYP11A1 inhibition: modified isocaproic acid release assay (IARA) in H295R cells
Format: cell-based
Conditions: human H295R adrenocortical carcinoma cells treated three days, 3 nM [24,25-3H]-labelled cholesterol, 1% DMSO, 10 concentrations in duplicates; read-out: IC50 of the test compounds on CYP11A1 inhibition
Method: The ability of the test compounds to inhibit conversion of cholesterole to pregnenolone and isocaproic acid was measured by modification of isocaproic acid release assay (IARA) described by Ruangwises et. al. (Biology of Reproduction 1991; 45(1):143-50) except that human H295R adrenocortical carcinoma cell line was used as source of enzyme and extraction was done with dextran-coated charcoal suspension (Isomaa, V. et al., Endocrinology 1982; 111(3):833-843). […] To determine the half maximal inhibitory concentration (IC50) of the test compounds on CYP11A1 inhibition, the cells were treated for three days with increasing concentrations of the test compounds in the presence of 3 nM [24,25-3H]-labelled cholesterol (American Radiolabelled Chemicals). The final DMSO concentration was 1%. Cell culture medium was extracted with dextran-coated charcoal suspension and the radiolabelled isocaproic acid was determined by mixing 100 μl of supernatant fraction in 200 μl of scintillation fluid (OptiPhase SuperMix, Perkin Elmer). Radioactivity was measured using a Microbeta scintillation counter (1450 MicroBeta Trilux, Wallac). All the test compounds were studied at 10 concentrations in duplicates.

Row | IC50 [µM] | Compound
1 | 0.15 to 0.3 | Cc1ccc2c(c1)CN(Cc1cc(=O)c(OCc3ccc(S(C)(=O)=O)cc3)co1)C2 [Compound 279, 2-((5-Methylisoindolin-2-yl)methyl)-5-((4-(methylsulfonyl)benzyl)oxy)-4H-pyran-4-one]
2 | < 0.15 | CCC(=O)N1CCC(COc2coc(CN3Cc4ccc(F)cc4C3)cc2=O)CC1 [Compound 224, 2-((5-Fluoroisoindolin-2-yl)methyl)-5-((1-propionylpiperidin-4-yl)methoxy)-4H-pyran-4-one]
3 | 0.301 to 2 | CC(=O)N=S1(=O)CCC(COc2coc(CN3Cc4ccccc4C3)cc2=O)CC1 (centres unmarked) [Compound 243, N-(4-(((6-(Isoindolin-2-ylmethyl)-4-oxo-4H-pyran-3-yl)oxy)methyl)-1-oxido-tetrahydro-2H-1λ^6-thiopyran-1-ylidene)acetamide]
4 | 0.301 to 2 | CNC(=O)c1ccc(COc2coc(CN3CCc4ccccc4C3)cc2=O)cc1 [Compound 48, 4-(((6-((3,4-Dihydroisoquinolin-2(1H)-yl)methyl)-4-oxo-4H-pyran-3-yl)oxy)-methyl)-N-methylbenzamide]
5 | 0.15 to 0.3 | O=c1cc(CN2Cc3ccccc3C2)occ1OCC1CN(S(=O)(=O)c2csc(Cl)c2)C1 [Compound 30, 5-((1-((5-Chlorothiophen-3-yl)sulfonyl)azetidin-3-yl)methoxy)-2-(isoindolin-2-ylmethyl)-4H-pyran-4-one]
6 | 0.15 to 0.3 | CS(=O)(=O)c1ccc(COc2coc(CN3Cc4ccccc4C3)cc2=O)cc1 [Compound 1, 2-(Isoindolin-2-ylmethyl)-5-((4-(methylsulfonyl)benzyl)oxy)-4H-pyran-4-one]
7 | 0.15 to 0.3 | CN(C)C(=O)c1c(F)cc(COc2coc(CN3Cc4ccccc4C3)cc2=O)cc1F [Compound 174, 2,6-Difluoro-4-(((6-(isoindolin-2-ylmethyl)-4-oxo-4H-pyran-3-yl)oxy)methyl)-N,N-dimethylbenzamide]
8 | < 0.15 | O=c1cc(CN2Cc3ccccc3C2)occ1OCC1CCCCC1 [Compound 65, 5-(Cyclohexylmethoxy)-2-(isoindolin-2-ylmethyl)-4H-pyran-4-one]
9 | 0.301 to 2 | N#Cc1cccc(COc2coc(CN3CCc4ccccc4C3)cc2=O)c1 [Compound 50, 3-(((6-((3,4-Dihydroisoquinolin-2(1H)-yl)methyl)-4-oxo-4H-pyran-3-yl)oxy)-methyl)benzonitrile]
10 | 0.15 to 0.3 | CS(=O)(=O)c1ccc(COc2coc(CN3Cc4ccc(F)cc4C3)cc2=O)cc1 [Compound 63, 2-((5-Fluoroisoindolin-2-yl)methyl)-5-((4-(methylsulfonyl)benzyl)oxy)-4H-pyran-4-one]
11 | 0.301 to 2 | CC(C)(C)OC(=O)N1CCC(CCOc2coc(CN3Cc4ccccc4C3)cc2=O)CC1 [Compound 197, tert-Butyl 4-(2-((6-(isoindolin-2-ylmethyl)-4-oxo-4H-pyran-3-yl)oxy)ethyl)-piperidine-1-carboxylate]
12 | 0.15 to 0.3 | COCCN(C)S(=O)(=O)c1ccc(COc2coc(CN3Cc4ccccc4C3)cc2=O)cc1 [Compound 20, 4-(((6-(Isoindolin-2-ylmethyl)-4-oxo-4H-pyran-3-yl)oxy)methyl)-N-(2-methoxyethyl)-N-methylbenzenesulfonamide]
13 | 0.301 to 2 | C#CCNC(=O)c1ccc(COc2coc(CN3Cc4ccccc4C3)cc2=O)cc1 [Compound 141, 4-(((6-(Isoindolin-2-ylmethyl)-4-oxo-4H-pyran-3-yl)oxy)methyl)-N-(prop-2-yn-1-yl)benzamide]
14 | < 0.15 | N#CCS(=O)(=O)N1CCC(COc2coc(CN3Cc4ccccc4C3)cc2=O)CC1 [Compound 254, 2-((4-(((6-(Isoindolin-2-ylmethyl)-4-oxo-4H-pyran-3-yl)oxy)methyl)piperidin-1-yl)sulfonyl)acetonitrile]
15 | 0.301 to 2 | COc1cc(COc2coc(CN3Cc4ccccc4C3)cc2=O)ccn1 [Compound 110, 2-(Isoindolin-2-ylmethyl)-5-((2-methoxypyridin-4-yl)methoxy)-4H-pyran-4-one]
16 | 0.15 to 0.3 | Cc1ccc(S(=O)(=O)N=S2(=O)CCC(COc3coc(CN4Cc5ccccc5C4)cc3=O)CC2)cc1 (centres unmarked) [Compound 194, N-(4-(((6-(Isoindolin-2-ylmethyl)-4-oxo-4H-pyran-3-yl)oxy)methyl)-1-oxido-tetrahydro-2H-thiopyran-1-ylidene)-4-methylbenzenesulfonamide]

Row | IC50 [µM] | Compound
17 | < 0.15 | O=C(c1ccc(COc2coc(CN3Cc4ccccc4C3)cc2=O)c(F)c1)N1CCC1 [Compound 95, 5-((4-(Azetidine-1-carbonyl)-2-fluorobenzyl)oxy)-2-(isoindolin-2-ylmethyl)-4H-pyran-4-one]
18 | 0.15 to 0.3 | CS(=N)(=O)c1ccc(COc2coc(CN3Cc4ccccc4C3)cc2=O)cc1 (centres unmarked) [Compound 86, 2-(Isoindolin-2-ylmethyl)-5-((4-(S-methylsulfonimidoyl)benzyl)oxy)-4H-pyran-4-one]
19 | 0.15 to 0.3 | CN(C)C(=O)c1ccc(COc2coc(CN3Cc4cc(F)c(F)cc4C3)cc2=O)cc1 [Compound 82a, 4-(((6-((5,6-Difluoroisoindolin-2-yl)methyl)-4-oxo-4H-pyran-3-yl)oxy)methyl)-N,N-dimethylbenzamide]
20 | 0.301 to 2 | CC(C)CC(=O)N[C@@H]1C=C[C@H](COc2coc(CN3Cc4ccccc4C3)cc2=O)C1 (relative stereo) [Compound 275, Cis-N-(4-(((6-(isoindolin-2-ylmethyl)-4-oxo-4H-pyran-3-yl)oxy)methyl)cyclo-pent-2-en-1-yl)-3-methylbutanamide, Formate]
21 | < 0.15 | O=c1cc(CN2Cc3ccccc3C2)occ1OCc1ccc(C2(O)CCC2)cc1 [Compound 111, 5-((4-(1-Hydroxycyclobutyl)benzyl)oxy)-2-(isoindolin-2-ylmethyl)-4H-pyran-4-one]
22 | 0.301 to 2 | CN(C)C(=O)c1ccc(CCOc2coc(CN3Cc4ccccc4C3)cc2=O)cc1 [Compound 112, 4-(2-((6-(Isoindolin-2-ylmethyl)-4-oxo-4H-pyran-3-yl)oxy)ethyl)-N,N-dimethylbenzamide]
23 | 0.301 to 2 | CC(=O)N1CCC(CCOc2coc(CN3Cc4ccccc4C3)cc2=O)CC1 [Compound 206, 5-(2-(1-Acetylpiperidin-4-yl)ethoxy)-2-(isoindolin-2-ylmethyl)-4H-pyran-4-one]
24 | < 0.15 | CS(=O)(=O)CC(=O)N1CCC(COc2coc(CN3Cc4ccccc4C3)cc2=O)CC1 [Compound 238, 2-(Isoindolin-2-ylmethyl)-5-((1-(2-(methylsulfonyl)acetyl)piperidin-4-yl)-methoxy)-4H-pyran-4-one]
25 | < 0.15 | O=c1cc(CN2Cc3ccccc3C2)occ1OCc1ccc(S(=O)(=O)C(F)F)cc1 [Compound 22, 5-((4-((Difluoromethyl)sulfonyl)benzyl)oxy)-2-(isoindolin-2-ylmethyl)-4H-pyran-4-one]
26 | 0.15 to 0.3 | CC(C)NC(=O)c1ccc(COc2coc(CN3Cc4ccccc4C3)cc2=O)cc1 [Compound 140, 4-(((6-(Isoindolin-2-ylmethyl)-4-oxo-4H-pyran-3-yl)oxy)methyl)-N-isopropylbenzamide]
27 | 0.15 to 0.3 | CCS(=N)(=O)c1ccc(COc2coc(CN3Cc4ccccc4C3)cc2=O)cc1 (centres unmarked) [Compound 101, 5-((4-(Ethylsulfonimidoyl)benzyl)oxy)-2-(isoindolin-2-ylmethyl)-4H-pyran-4-one]
28 | 0.15 to 0.3 | O=C(N1CCC1)N1CCC(COc2coc(CN3Cc4ccccc4C3)cc2=O)CC1 [Compound 231, 5-((1-(Azetidine-1-carbonyl)piperidin-4-yl)methoxy)-2-(isoindolin-2-ylmethyl)-4H-pyran-4-one]
29 | < 0.15 | CS(=O)(=O)NCC1CCC(COc2coc(CN3Cc4ccccc4C3)cc2=O)CC1 (centres unmarked) [Compound 173, N-((4-(((6-(Isoindolin-2-ylmethyl)-4-oxo-4H-pyran-3-yl)oxy)methyl)cyclohexyl)-methyl)methanesulfonamide]
30 | 0.301 to 2 | CS(=O)(=O)c1ccc(COc2coc(CN3Cc4ccccc4C3)cc2=O)c(C(F)(F)F)c1 [Compound 19, 2-(Isoindolin-2-ylmethyl)-5-((4-(methylsulfonyl)-2-(trifluoromethyl)benzyl)oxy)-4H-pyran-4-one]
31 | 0.15 to 0.3 | COCCS(=O)(=O)c1ccc(COc2coc(CN3Cc4ccc(F)cc4C3)cc2=O)cc1 [Compound 29, 2-((5-Fluoroisoindolin-2-yl)methyl)-5-((4-((2-methoxyethyl)sulfonyl)benzyl)oxy)-4H-pyran-4-one]
32 | < 0.15 | CCS(=O)(=O)N1CCC(COc2coc(CN3Cc4ccc(F)cc4C3)cc2=O)CC1 [Compound 189, 5-((1-(Ethylsulfonyl)piperidin-4-yl)methoxy)-2-((5-fluoroisoindolin-2-yl)methyl)-4H-pyran-4-one]
